Here are results for three compounds from patent US20130028986A1, “Pharmaceutical Compositions” (SABAREP LIMITED, priority 2005, published 2013).

The assay has as its system skin or epidermal barrier (skin treated with clobetasol propionate). The assay is described as follows: Topical corticosteroid induced protease skin barrier damage model (tape stripping, TEWL). It counts as in vivo, human (volunteer). As to conditions: for rate of TEWL increase during tape stripping: compared to control and vehicle alone, up to 20 tape strips. The source says:
Topical glucocorticoids (corticosteroids), which are used in the treatment of atopic dermatitis, damage the skin barrier and cause changes to the lipids within the epidermis, and a reduction in the number corneodesmosomes holding the corneocytes together. […] Therefore, skin that has been pretreated with gluticocorticoids can provide a good model in which to test the efficacy of compounds for their capacity to restore the skin or epidermal barrier and to be useful in the treatment of dermato logical conditions that compromise the skin or epidermal barrier, particularly those involving an abnormal decrease in the cell-to-cell adhesion between epithelial cells (in particular between corneocytes) such as atopic eczema or dermatitis, sebarrhoeic eczema, irritant contact dermatitis, allergic contact dermatitis and other sensitive skin conditions. […] The techniques disclosed by Kao et al. provide a measure of barrier integrity and corneocyte cohesion (any increases in TEWL are indicative of a loss in barrier function and increases in total protein removed by the skin strips are the result of a loss of intercellular cohesion, and vice versa). The methods employed by Kao were therefore used in the following examples. The TEWL measurements were taken using an “Aquaflux AF 102” electrolytic water analyser (Available from Biox Systems Ltd, Southwark Campus, 103 Borough Road, London SE1 0AA, UK) in the manner described in Berg et al. (Berg, E. P. Pascut, F. C, Ciortea, L. L, O'Driscoll, D., Xiao, P. and Imhof, R. E. (2002), Aquaflux—A new instrument for water vapour flux density measurement Proceedings of the 4th International Symposium on Humidity and Moisture, Centre for Measurement Standards, ITRI, RoC, ISBN 957-774-423-0, pp. 288-95) and Ciortea et al. (Ciortea, L. I. O'Driscoll, D., Berg, E. P., Xiao, P., Pascut, F. C. and Imhof, R. E. (2002), New methods for measuring water desorption and vapour permeation rates in membranes Proceedings of the 4th International Symposium on Humidity and Moisture, Centre for Measurement Standards, ITRI, RoC, ISBN 957-774-423-0, pp. 288-95).
Microfine zinc oxide (available from BASF Aktiengesellschaft, 67056 Ludwigshafen, Germany, under the trade mark Z-Cote®, item no. 55082355, or from Univar, Basildon, Essex, UK, as item no. 76011010; see also: Z-Cote®, BASF; Mitchnick, M. A., Fairhurst, D. and Pinnell, S. R. (1999) J Am Acad Dermatol 40: 85-90) (25%) in light liquid paraffin was applied twice a day to a volunteer's left forearm for 4 days; their right forearm received light liquid paraffin only. One fingertip unit of clobetasol propionate (a potent corticosteroid) was then applied twice a day to the study areas for 3 days. TEWL was then measured at base line and following the removal of 4, 8, 12 and 16 tape strips.
Microfine zinc oxide, 5 and 15%, in light liquid paraffin was applied twice a day to a volunteer's the left bicep and left forearm for 4 days, respectively; the right bicep received light liquid paraffin only. […] TEWL was then measured at base line and following the removal of 4, 8, 12 and 16 tape strips. […]
Four finger dips of 12 mg/ml zinc stearate in light liquid paraffin were applied to the right forearm for 9 days, twice daily. […] On day 10, TEWL was measured at base line following the removal of 4, 8, 12 and 16 tape strips. […]

Take `[O-2].[Zn+2]` [Microfine zinc oxide, zinc oxide]: where the note is “Example Ia, FIG. 2, 25% in light liquid paraffin twice a day for 4 days on left forearm, then clobetasol propionate twice a day for 3 days, compared with light liquid paraffin only”, the “reduction in TEWL following the removal of 16 tape strips” value is 37.5%. The “protective effect (TEWL at base line and after 4, 8, 12 and 16 tape strips)” value (Example Ib, FIG. 3, 5 and 15% in light liquid paraffin twice a day for 4 days, clobetasol propionate twice a day for 3 days, compared with light liquid paraffin only) was “dose-dependant response”. The “rate of TEWL increase during tape stripping” value (Example Ie, FIG. 6, zinc oxide 25% (alone or with 12 mg/ml palmitic acid) in PEG400/ethanol (7:3) 6 times a day for 4 days, clobetasol propionate 3 times over 48 hours) is recorded as “significantly reduced”.
For `CCCCCCCCCCCCCCCC(=O)O` [palmitic acid, Hexadecanoic acid], the “rate of TEWL increase during tape stripping” value (Example Id, FIG. 5, 12 mg/ml in PEG400/ethanol (7:3) 6 times a day for 4 days, then clobetasol propionate 3 times over 24 hours) is reported as “significantly reduced”.
As for zinc stearate, the “protection against the effects of clobetasol (TEWL at base line and after 4, 8, 12 and 16 tape strips)” value (Example Ic, FIG. 4, 12 mg/ml in light liquid paraffin twice daily for 9 days on right forearm, clobetasol propionate twice a day on days 6 to 9, TEWL on day 10) is listed as “can also protect against the effects of clobetasol”.
